These results are taken from patent US8470867B2, “Sigma receptor inhibitors” (Laboratorios Del Dr. Esteve, S.A., priority 2004, dated 2013).

The term melting point denotes the temperature of the solid-liquid transition. A word on the inhibition: it is the change of the read-out against control, counted positive when it falls. For orientation: Ki means the dissociation constant of the complex between target and ligand, obtained from inhibition or displacement.

One series addresses T1, σ1-receptor (Cavia porcellus, UniProt Q60492).
T1 construct: guinea pig brains were homogenized; from tissue; host or cells: guinea pig brain membranes
Briefly: Sigma-1 receptor binding, [3H](+)-pentazocine, brain membranes. As to conditions: for inhibition at 0.1 µM: 10^−7 M. On the set-up: species or system guinea pig. The method, then:
Brain membrane preparation and binding assays for the σ1-receptor were performed as described (DeHaven-Hudkins et al., 1992) with some modifications. In brief, guinea pig brains were homogenized in 10 vols. (w/v) of Tris-HCl 50 mM 0.32 M sucrose, pH 7.4, with a Kinematica Polytron PT 3000 at 15000 r.p.m. for 30 s. The homogenate was centrifuged at 1000 g for […] at 4° C. and the supernatants collected and centrifuged again at 48000 g for 15 min at 4° C. The pellet was resuspended in 10 volumes of Tris-HCl buffer (50 mM, pH 7.4), incubated at 37° C. for 30 min, and centrifuged at 48000 g for 20 min at 4° C. Following this, the pellet was resuspended in fresh Tris-HCl buffer (50 mM, pH 7.4) and stored on ice until use.
Each assay tube contained 10 μL of [^3H](+)-pentazocine (final concentration of 0.5 nM), 900 μL of the tissue suspension to a final assay volume of 1 mL and a final tissue concentration of approximately 30 mg tissue net weight/mL. […] All tubes were incubated at 37° C. for 150 min before termination of the reaction by rapid filtration over Schleicher & Schuell GF 3362 glass fibre filters [previously soaked in a solution of 0.5% polyethylenimine for at least 1 h]. Filters were then washed with four times with 4 mL of cold Tris-HCl buffer (50 mM, pH 7.4). Following addition of scintillation cocktail, the samples were allowed to equilibrate overnight. The amount of bound radioactivity was determined by liquid scintillation spectrometry using a Wallac Winspectral 1414 liquid scintillation counter. Protein concentrations were determined by the method of Lowry et al. (1951).

The test system of another series is psychosis. As to conditions: cited from earlier work.
Another series addresses sigma 1 (σ-1) site (Homo sapiens, UniProt Q99720). As to conditions: cited from earlier work.
Another series concerns the target sigma (σ-2) site (Homo sapiens, UniProt Q5BJF2). Particulars: cited from earlier work.
The next series addresses T2, σ2-receptor (Mus musculus, UniProt Q8VD00).
T2 construct: brains from sigma receptor type I (σ1) knockout mice were homogenized; from tissue; host or cells: brain membranes of σ1 knockout mice
T2 sequence (Q8VD00 1-176): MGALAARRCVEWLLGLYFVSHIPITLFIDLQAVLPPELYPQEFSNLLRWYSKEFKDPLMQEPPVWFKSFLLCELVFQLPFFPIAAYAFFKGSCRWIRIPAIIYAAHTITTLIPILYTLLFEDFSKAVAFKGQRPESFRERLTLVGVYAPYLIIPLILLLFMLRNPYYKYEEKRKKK
Briefly: Sigma-2 receptor binding, [3H]-DTG, brains from σ1 knockout mice. On the set-up: % Binding σ2: dose or concentration left out as unconfirmed. The protocol: Binding studies for σ2-receptor were performed as described ([…] et al., 1991) with some modifications. In brief, brains from sigma receptor type I (σ1) knockout mice were homogenized in a volume of 10 mL/g tissue net weight of ice-cold 10 mM Tris-HCl, pH 7.4, containing 320 mM sucrose (Tris-sucrose buffer) with a Potter-Elvehjem homogenizer (10 strokes at 500 r.p.m.) The homogenates were then centrifuged at 1000 g for […] at 4° C., and the supernatants were saved. The pellets were resuspended by vortexing in 2 mL/g ice-cold Tris-sucrose buffer and centrifuged again at 1000 g for 10 min. The combined 1000 g supernatants were centrifuged at 31000 g for 15 min at 4° C. The pellets were resuspended by vortexing in 3 mL/g 10 mM Tris-HCl, pH 7.4, and the suspension was kept at 25° C. for 15 min. Following centrifugation at 31000 g for 15 min, the pellets were resuspended by gentle Potter Elvehjem homogenization to a volume of 1.53 mL/g in 10 mM Tris-HCl pH 7.4. The assay tubes contained 10 μL of [^3H]-DTG (final concentration of 3 nM), 400 μL of the tissue suspension (5.3 mL/g in 50 mM Tris-HCl, pH 8.0) to a final assay volume of 0.5 mL. […] The amount of bound radioactivity was determined by liquid scintillation spectrometry using a Wallac Winspectral 1414 liquid scintillation counter. Protein concentrations were determined by the method of Lowry et al. (1951).

Series [1] concerns capsaicin-induced mechanical allodynia. Kind of series: Effect on capsaicin in development of mechanical allodynia (von Frey filaments). It is filed as in vivo. As to conditions: mice. The method, then: This model uses the von-Frey Filaments and is a model to test the effects or symptoms of neuropathic pain, allodynia etc.
• The injection of 1 μg of capsaicin to experimental animals produces acute pain followed by hyperalgesia/allodynia • The mechanisms involved in capsaicin-induced acute pain and hyperalgesia are relatively well known (mainly activation of peripheral nociceptors and sensitization of spinal cord neurons, respectively)
After habituation mice were according to FIG. 1 first treated with the test-compound (or solvent in controls). Then 1 μg capsaicin (1% DMSO) is injected into their paw resulting in developing pain in the effected paw. The effected paw is then treated with a mechanical stimulus and the latency time before the paw is withdrawn is measured.

T1 sequence (Q60492 whole entry): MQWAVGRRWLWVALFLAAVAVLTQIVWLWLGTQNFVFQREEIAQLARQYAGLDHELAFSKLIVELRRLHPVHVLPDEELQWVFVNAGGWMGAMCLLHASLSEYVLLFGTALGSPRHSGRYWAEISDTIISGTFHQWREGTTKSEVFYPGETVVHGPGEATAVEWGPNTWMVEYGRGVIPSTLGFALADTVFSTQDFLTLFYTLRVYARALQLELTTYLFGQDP
Chain of sigma (σ-2) site (Q5BJF2 whole entry): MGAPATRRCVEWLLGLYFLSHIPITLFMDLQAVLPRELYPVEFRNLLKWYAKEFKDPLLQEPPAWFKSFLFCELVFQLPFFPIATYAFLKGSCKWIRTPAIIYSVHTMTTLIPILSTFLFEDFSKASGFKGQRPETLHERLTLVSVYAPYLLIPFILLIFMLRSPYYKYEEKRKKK
Chain of sigma 1 (σ-1) site (Q99720 whole entry): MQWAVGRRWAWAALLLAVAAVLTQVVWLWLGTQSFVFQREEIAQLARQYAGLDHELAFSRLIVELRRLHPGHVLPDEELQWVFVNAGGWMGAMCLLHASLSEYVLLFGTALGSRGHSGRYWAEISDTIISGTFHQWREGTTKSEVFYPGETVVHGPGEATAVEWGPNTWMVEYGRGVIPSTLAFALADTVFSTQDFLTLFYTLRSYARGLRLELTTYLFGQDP

With `Cc1cc(OCCN2CCCC2)nn1-c1ccc(Cl)c(Cl)c1.Cl` [Example 3, 1-(3,4-Dichlorophenyl)-5-methyl-3-[2-(pyrrolidin-1-yl)ethoxy]-1H-pyrazole hydrochloride], the melting point is > 280 °C (dec.). The inhibition at 0.1 µM on σ1-receptor came out at 102%.
As to `CC(C)c1cc(OCCCN2CCCC2)nn1-c1ccc(Cl)c(Cl)c1.Cl` [Example 34, 1-(3,4-Dichlorophenyl)-5-isopropyl-3-[3-(pyrrolidin-1-yl)propoxy]-1H-pyrazole hydrochloride], the melting point lay in the range of 152 to 156 °C. At σ1-receptor, the affinity, expressed as Ki, was 12.4 nM and the inhibition at 0.1 µM is 104%.
In the case of `Cc1cc(OCCN2CCCC2)nn1-c1ccc2ccccc2c1.Cl` [Example 64, 5-Methyl-1-(naphthalen-2-yl)-3-[2-(pyrrolidin-1-yl)ethoxy]-1H-pyrazole hydrochloride], the melting point lay within 170 to 171 °C. Besides, the inhibition at 0.1 µM at σ1-receptor was determined as 105%.
With `Cc1cc(OCCCCN2CCN(C)CC2)nn1-c1ccc(Cl)c(Cl)c1.Cl.Cl` [Example 25, 1-{4-[1-(3,4-Dichlorophenyl)-5-methyl-1H-pyrazol-3-yloxy]butyl}-4-methylpiperazine dihydrochloride], the melting point lay in the range of 181 to 185 °C. On σ1-receptor, the Ki was found to be 3.9 nM and the inhibition at 0.1 µM worked out at 94.2%.
Take `C[C@@H]1CN(CCCn2c3ccccc3c3ccccc32)C[C@H](C)N1` [rimcazole]: the “clinical effects in the treatment of psychosis” value in the series on psychosis is listed as “clinically shows effects in the treatment of psychosis”.
Consider `Cc1cc(OCCCN2CCCC2)nn1-c1ccc(Cl)c(Cl)c1.Cl` [Example 4, 1-(3,4-Dichlorophenyl)-5-methyl-3-[3-(pyrrolidin-1-yl)propoxy]-1H-pyrazole hydrochloride], for which the melting point lay within 149 to 155 °C. Further, at σ1-receptor, the inhibition at 0.1 µM was determined as 98%.
The like results for `Cl.Clc1ccc(-n2nc(OCCN3CCCC3)cc2-c2ccccc2)cc1Cl` [Example 17, 1-(3,4-Dichlorophenyl)-5-phenyl-3-[2-(pyrrolidin-1-yl)ethoxy]-1H-pyrazole hydrochloride] were, in that order, 137 to 147 °C and 47.3%.
In the case of SKF 10047, the “affinity for the sigma 1 (σ-1) site” value on sigma 1 (σ-1) site is “nanomolar affinity”. For the same compound, the “affinity for the sigma (σ-2) site” value at sigma (σ-2) site is given as “micromolar affinity”.
Take `Cc1cc(OCCCCN2CCC(c3ccccc3)CC2)nn1-c1ccc(Cl)c(Cl)c1.Cl` [Example 28, 1-{4-[1-(3,4-dichlorophenyl)-5-methyl-1H-pyrazol-3-yloxy]butyl}-4-phenylpiperidine hydrochloride]: the melting point is 166 to 170 °C. For the same compound, the inhibition at 0.1 µM at σ1-receptor turned out to be 95.1%.
As to `Cc1cc(OCCCCN2CCOCC2)nn1-c1ccc(Cl)c(Cl)c1.Cl` [Example 22, 4-{4-[1-(3,4-Dichlorophenyl)-5-methyl-1H-pyrazol-3-yloxy]butyl}morpholine hydrochloride], the melting point is 150 to 154 °C. On σ1-receptor, the affinity corresponds to a Ki of 2.5 nM and the inhibition at 0.1 µM was 97%.
`CC(C)c1cc(OCCN2CCOCC2)nn1-c1ccc(Cl)c(Cl)c1.Cl` [Example 31, 4-{2-[1-(3,4-dichlorophenyl)-5-isopropyl-1H-pyrazol-3-yloxy]ethyl}morpholine hydrochloride] yielded a melting point of 195 to 197 °C. Besides, at σ1-receptor, the inhibition at 0.1 µM was determined as 68.6%.
In turn, `Cc1cc(OCCCCN2CCCCC2)nn1-c1ccc(Cl)c(Cl)c1.Cl` [Example 24, 1-{4-[1-(3,4-Dichlorophenyl)-5-methyl-1H-pyrazol-3-yloxy]butyl}piperidine hydrochloride] returned a melting point of 156 to 161 °C. Further, on σ1-receptor, the affinity corresponds to a Ki of 0.5 nM and the inhibition at 0.1 µM came to 110%.
`Cc1cc(OCCN2CCCCC2)nn1-c1ccc2ccccc2c1.Cl` [Example 63, 1-{2-[5-Methyl-1-(naphthalen-2-yl)-1H-pyrazol-3-yloxy]ethyl}piperidine hydrochloride] registered a melting point of 198 to 202 °C. In addition, the inhibition at 0.1 µM at σ1-receptor came to 105%.
In turn, `CC(C)c1cc(OCCN2CCCC2)nn1-c1ccc(Cl)c(Cl)c1.Cl` [Example 33, 1-(3,4-Dichlorophenyl)-5-isopropyl-3-[2-(pyrrolidin-1-yl)ethoxy]-1H-pyrazole hydrochloride] came in with a melting point of 138 to 142 °C. Moreover, at σ1-receptor, the inhibition at 0.1 µM came out at 87.1%.
In the case of `Cc1cc(OCCN2CCOCC2)nn1-c1ccc(Cl)c(Cl)c1` [Example 1, 4-{2-(1-(3,4-Dichlorophenyl)-5-methyl-1H pyrazol-3-yloxy)ethyl}morpholine], the melting point was 179 to 182 °C. Further, on σ2-receptor, the “% Binding σ2” value is recorded as 3.7% and the Ki is above 10000 nM. In addition, the “analgesia in capsaicin-induced neuropathic pain, dose dependency (FIG. 2)” value in series [1] (1 μg capsaicin into paw, von Frey filaments) is listed as “dose dependency of the treatment”. For the same compound, the “efficacy depending on the force of the von-Frey filaments (FIG. 3)” value in series [1] (1 μg capsaicin, 0.5 g typically in the range of neuropathic pain/allodynia) is listed as “effective specifically in neuropathic pain or mechanical allodynia”.
`CC(C)c1cc(OCCN2CCc3ccccc3C2)nn1-c1ccc(Cl)c(Cl)c1.Cl` [Example 36, 2-{2-[1-(3,4-dichlorophenyl)-5-isopropyl-1H-pyrazol-3-yloxy]ethyl}-1,2,3,4-tetrahydroisoquinoline hydrochloride] returned a melting point of 186 to 191 °C. Moreover, the inhibition at 0.1 µM on σ1-receptor stood at 52.7%.
As for `Cc1cc(OCCN2CCCCC2)nn1-c1ccc(Cl)c(Cl)c1` [Example 5, 1-{2-[1-(3,4-dichlorophenyl)-5-methyl-1H-pyrazol-3-yloxy]ethyl}piperidine], the melting point fell in the range of 119 to 122 °C. Moreover, the inhibition at 0.1 µM at σ1-receptor amounted to 108%.
